These results are taken from PMC7252619 (PLoS ONE, 2020).

What is called Kd is a measure of binding affinity in units of concentration. A higher Kd goes with a looser complex.

For one series, the target named is T1, MLK4 (Homo sapiens, UniProt Q5TCX8).
T1 construct: purchased ReactionBiology
Type of series: biochemical. The note with it: for % Enzyme Activity (relative to DMSO controls), Data 1: replicate Data 1; for % Enzyme Activity (relative to DMSO controls), Data 2: replicate Data 2.

In another series the test system is human CD19+ B cells. In words: B-cell assay: IgG production of ODN2006-stimulated primary B cells (AlphaLISA). The class given is cell-based. A general note: Alpha assays give light when donor and acceptor beads are brought close together.
The test system of another series is Jurkat cells. In words: WST-1 cytotoxicity assay on Jurkat cells (T-cell line). Type of series: cell-based, human. The settings on record: 48 h; mean of 4 independent measures; read-out: Cytotoxicity, WST-1 Jurkat IC 50 (µM) Mean.
In another series the test system is RPMI1788 cells. In words: WST-1 cytotoxicity assay on RPMI1788 cells (B-cell line). Type of series: cell-based, human. The settings on record: 48 h; mean of 4 independent measures; read-out: Cytotoxicity, WST-1 RPMI 1788 IC 50 (µM) Mean.
Series [1] concerns human PBMCs (responder cells) with RPMI1788 stimulator cells. The series can be described thus: Mixed Lymphocyte Reaction (MLR, T cell assay), 3H-thymidine incorporation. Type of series: cell-based. The settings on record: for Selectivity Index (SI) MLR/B-cell: ratio of IC50 values. On the technique in general: Uptake of a labelled nucleoside into DNA is a usual measure of proliferation.
Description: In order to test the efficacy and selectivity of the hit compounds on B-cells, 4 assays were performed: B-cell assay, Mixed Lymphocyte Reaction (MLR), WST-1 assay on RPMI1788 cells (B-cell line) and cytotoxicity WST-1 assay on Jurkat cells (T-cell line). Compounds were prepared as 10 mM stock solutions in dimethylsulfoxide (DMSO)and were tested at 50-10-1-0.1-0.01 and 0.001 μM in the 4 assays.
Blood samples of healthy volunteers were collected at the Red Cross of Mechelen, Belgium. Each donor consents to the use of their blood for research purposes. […] The human B cell line RPMI1788 (American Type Culture Collection, USA) and the human T cell line Jurkat (European Collection of Cell Cultures, ECACC, England) were maintained in RPMI1640 culture medium (BioWhittaker®, Lonza, Verviers, Belgium) containing 10% foetal calf serum (FCS, HyClone® Thermo Scientific, United Kingdom) and 5 μg/mL gentamicin sulphate (BioWhittaker®, Lonza, Verviers, Belgium) at 37°C and 5% CO2.
MLR assay (T cell assay): Freshly isolated human PBMCs (responder cells) were resuspended in RPMI1640 medium containing 10% FCS and 5nμg/mL gentamicin sulphate. RPMI1788 cells (stimulator cells) were inactivated by treatment with mitomycin C (Kyowa®, Takeda Belgium, Brussels, Belgium) for 20 min at 37°C, washed and finally suspended in culture medium. An amount of 100 μL of each cell suspension was mixed with 20 μL of diluted compound. The mixed cells were cultured at 37°C for 6 days in 5% CO2. DNA synthesis was assayed by the addition of 10 μCi (methyl-3H) thymidine (Perkin Elmer, Zaventem, Belgium) per well during the last 18 h in culture. Thereafter, the cells were harvested on glass filter paper and the counts per minute determined in a liquid scintillation counter (TopCount, Perkin Elmer, Zaventem, Belgium).

The target of series [2] is T2, VEGFR2 (Homo sapiens, UniProt P35968). In words: KINOMEscan competition binding assay, dose response.
T2 sequence (P35968 20-1356): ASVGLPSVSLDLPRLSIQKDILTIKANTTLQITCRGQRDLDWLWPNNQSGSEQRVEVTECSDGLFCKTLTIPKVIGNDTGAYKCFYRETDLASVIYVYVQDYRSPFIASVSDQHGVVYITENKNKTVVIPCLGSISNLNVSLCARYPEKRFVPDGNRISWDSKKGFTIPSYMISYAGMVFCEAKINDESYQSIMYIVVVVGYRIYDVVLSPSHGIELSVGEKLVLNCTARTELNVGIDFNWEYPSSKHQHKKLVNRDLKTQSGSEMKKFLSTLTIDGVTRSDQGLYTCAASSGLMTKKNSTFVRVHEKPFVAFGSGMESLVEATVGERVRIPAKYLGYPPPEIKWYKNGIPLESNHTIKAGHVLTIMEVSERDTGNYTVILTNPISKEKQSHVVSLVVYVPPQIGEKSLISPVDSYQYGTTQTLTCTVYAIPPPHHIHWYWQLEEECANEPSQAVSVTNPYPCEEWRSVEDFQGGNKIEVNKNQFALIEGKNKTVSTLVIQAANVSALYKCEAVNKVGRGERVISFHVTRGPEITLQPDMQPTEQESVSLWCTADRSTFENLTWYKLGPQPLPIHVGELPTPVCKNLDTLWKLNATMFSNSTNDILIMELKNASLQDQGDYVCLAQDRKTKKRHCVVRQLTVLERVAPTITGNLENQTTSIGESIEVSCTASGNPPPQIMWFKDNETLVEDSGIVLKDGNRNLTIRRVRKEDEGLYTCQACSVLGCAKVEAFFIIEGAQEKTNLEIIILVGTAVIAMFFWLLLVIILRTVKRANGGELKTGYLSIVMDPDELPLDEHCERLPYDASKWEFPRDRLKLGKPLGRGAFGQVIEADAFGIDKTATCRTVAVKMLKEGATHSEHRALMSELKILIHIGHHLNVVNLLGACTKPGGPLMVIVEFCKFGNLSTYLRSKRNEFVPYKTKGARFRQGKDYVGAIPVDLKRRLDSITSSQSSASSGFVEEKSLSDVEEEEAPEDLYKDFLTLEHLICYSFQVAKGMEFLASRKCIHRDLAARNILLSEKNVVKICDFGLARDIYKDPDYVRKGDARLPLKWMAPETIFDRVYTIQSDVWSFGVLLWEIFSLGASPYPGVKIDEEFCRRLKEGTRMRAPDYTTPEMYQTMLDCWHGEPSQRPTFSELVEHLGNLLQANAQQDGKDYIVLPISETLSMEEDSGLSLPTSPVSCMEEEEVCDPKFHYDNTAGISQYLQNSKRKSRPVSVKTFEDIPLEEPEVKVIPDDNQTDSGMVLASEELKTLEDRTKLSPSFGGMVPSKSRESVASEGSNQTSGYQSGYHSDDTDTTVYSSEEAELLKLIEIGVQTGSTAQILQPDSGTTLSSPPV
The nature of series [3]: WST-1 cytotoxicity assay on Jurkat cells (T-cell line). The settings on record: human, Jurkat cells (T-cell line), mean of 4 independent measures, read-out: Cytotoxicity, WST-1 Jurkat IC 50 (µM) Mean. The class given is cell-based, human. (In general: Tetrazolium dyes change colour on reduction, which living cells bring about.)
Description: Compounds were prepared as 10 mM stock solutions in dimethylsulfoxide (DMSO)and were tested at 50-10-1-0.1-0.01 and 0.001 μM in the 4 assays.
The human B cell line RPMI1788 (American Type Culture Collection, USA) and the human T cell line Jurkat (European Collection of Cell Cultures, ECACC, England) were maintained in RPMI1640 culture medium (BioWhittaker®, Lonza, Verviers, Belgium) containing 10% foetal calf serum (FCS, HyClone® Thermo Scientific, United Kingdom) and 5 μg/mL gentamicin sulphate (BioWhittaker®, Lonza, Verviers, Belgium) at 37°C and 5% CO2.
WST-1 assays on RPMI-1788 cells and Jurkat cells were performed as follows: 20 μL of test compound dilution were added to each well containing exponential growing cells and the plates were incubated for 48 h at 37°C, 5% CO2. Untreated cells and positive control (1% triton X-100, for the last 15 min) served as reference for maximum and minimum viability. At the end of incubation 100 μL of supernatant were removed and replaced by 10 μL of WST-1 solution (Cell Proliferation Reagent WST-1, Roche Applied Science).
Series [4] deals with T2, VEGFR2. The series can be described thus: Kinase activity test (ReactionBiology), % enzyme activity relative to DMSO. Set-up: purchased ReactionBiology. The note with it: VEGFR2. Type of series: biochemical.
A short description of series [5]: WST-1 cytotoxicity assay on RPMI1788 cells (B-cell line). The note with it: human, RPMI1788 cells (B-cell line), mean of 4 independent measures, read-out: Cytotoxicity, WST-1 RPMI 1788 IC 50 (µM) Mean. The class given is cell-based, human.
A further series has as its target T3, NEK2 (Homo sapiens, UniProt P51955).
T3 construct: purchased ReactionBiology
T3 sequence (P51955 1-445): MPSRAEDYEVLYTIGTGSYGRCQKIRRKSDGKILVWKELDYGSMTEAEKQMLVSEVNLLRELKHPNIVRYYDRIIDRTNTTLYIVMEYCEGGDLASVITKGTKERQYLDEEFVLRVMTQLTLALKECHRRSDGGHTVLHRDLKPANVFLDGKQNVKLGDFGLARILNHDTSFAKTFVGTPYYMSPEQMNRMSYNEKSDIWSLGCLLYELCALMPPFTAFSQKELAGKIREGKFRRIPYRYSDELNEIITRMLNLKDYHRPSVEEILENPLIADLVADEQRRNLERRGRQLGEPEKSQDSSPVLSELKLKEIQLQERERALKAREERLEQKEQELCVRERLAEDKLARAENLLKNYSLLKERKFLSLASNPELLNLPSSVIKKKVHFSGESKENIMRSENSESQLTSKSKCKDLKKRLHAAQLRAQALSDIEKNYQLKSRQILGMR
In words: Kinase activity test (ReactionBiology), % enzyme activity relative to DMSO. Type of series: biochemical.

In the next series the target is T4, EPHB4 (Homo sapiens, UniProt P54760).
T4 construct: purchased ReactionBiology
T4 sequence (P54760 16-987): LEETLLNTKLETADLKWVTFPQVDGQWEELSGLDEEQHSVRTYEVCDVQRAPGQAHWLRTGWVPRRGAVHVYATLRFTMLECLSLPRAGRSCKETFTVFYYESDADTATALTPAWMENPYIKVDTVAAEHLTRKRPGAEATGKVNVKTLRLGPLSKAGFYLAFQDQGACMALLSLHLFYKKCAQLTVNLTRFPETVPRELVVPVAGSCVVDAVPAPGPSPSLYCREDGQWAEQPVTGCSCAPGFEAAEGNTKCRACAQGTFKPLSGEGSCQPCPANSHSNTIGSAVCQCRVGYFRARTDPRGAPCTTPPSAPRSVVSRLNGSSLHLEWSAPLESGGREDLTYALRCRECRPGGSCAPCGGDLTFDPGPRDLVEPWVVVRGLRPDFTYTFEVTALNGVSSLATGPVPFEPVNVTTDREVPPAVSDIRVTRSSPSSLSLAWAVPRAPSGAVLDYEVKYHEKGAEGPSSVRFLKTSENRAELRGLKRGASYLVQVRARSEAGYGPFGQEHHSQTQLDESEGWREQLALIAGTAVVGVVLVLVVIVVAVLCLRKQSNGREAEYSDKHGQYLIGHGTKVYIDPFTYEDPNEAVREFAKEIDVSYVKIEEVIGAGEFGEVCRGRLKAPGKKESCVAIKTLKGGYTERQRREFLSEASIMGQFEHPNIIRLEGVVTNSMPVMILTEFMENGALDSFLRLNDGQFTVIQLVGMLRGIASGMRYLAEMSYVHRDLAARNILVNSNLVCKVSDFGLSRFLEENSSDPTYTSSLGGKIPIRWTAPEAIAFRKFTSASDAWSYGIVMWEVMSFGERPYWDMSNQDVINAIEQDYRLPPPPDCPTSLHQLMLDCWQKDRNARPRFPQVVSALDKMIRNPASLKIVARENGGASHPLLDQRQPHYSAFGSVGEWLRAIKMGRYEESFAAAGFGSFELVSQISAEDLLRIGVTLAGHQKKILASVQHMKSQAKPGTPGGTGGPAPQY
Described as above. Type of series: biochemical. The note with it: EPHB4.

The target of a further series is T5, CDC7 (Homo sapiens, UniProt O00311).
T5 construct: purchased ReactionBiology
T5 sequence (O00311 whole entry): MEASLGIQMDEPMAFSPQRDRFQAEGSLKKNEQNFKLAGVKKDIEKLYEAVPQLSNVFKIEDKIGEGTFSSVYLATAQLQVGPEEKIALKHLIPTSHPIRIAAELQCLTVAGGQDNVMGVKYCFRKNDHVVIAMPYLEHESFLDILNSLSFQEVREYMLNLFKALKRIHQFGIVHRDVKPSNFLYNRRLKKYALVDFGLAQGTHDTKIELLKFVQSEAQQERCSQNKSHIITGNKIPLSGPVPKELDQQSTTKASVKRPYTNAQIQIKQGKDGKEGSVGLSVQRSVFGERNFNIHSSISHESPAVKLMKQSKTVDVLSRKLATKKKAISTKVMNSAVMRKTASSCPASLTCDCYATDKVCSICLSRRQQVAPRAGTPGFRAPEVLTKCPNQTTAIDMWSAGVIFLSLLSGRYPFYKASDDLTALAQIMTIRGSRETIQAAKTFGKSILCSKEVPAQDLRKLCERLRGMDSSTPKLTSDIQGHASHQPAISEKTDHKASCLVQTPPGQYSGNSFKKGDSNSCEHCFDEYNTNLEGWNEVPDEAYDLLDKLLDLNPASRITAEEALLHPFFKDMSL
T5 sequence (Q9UBU7 whole entry partner): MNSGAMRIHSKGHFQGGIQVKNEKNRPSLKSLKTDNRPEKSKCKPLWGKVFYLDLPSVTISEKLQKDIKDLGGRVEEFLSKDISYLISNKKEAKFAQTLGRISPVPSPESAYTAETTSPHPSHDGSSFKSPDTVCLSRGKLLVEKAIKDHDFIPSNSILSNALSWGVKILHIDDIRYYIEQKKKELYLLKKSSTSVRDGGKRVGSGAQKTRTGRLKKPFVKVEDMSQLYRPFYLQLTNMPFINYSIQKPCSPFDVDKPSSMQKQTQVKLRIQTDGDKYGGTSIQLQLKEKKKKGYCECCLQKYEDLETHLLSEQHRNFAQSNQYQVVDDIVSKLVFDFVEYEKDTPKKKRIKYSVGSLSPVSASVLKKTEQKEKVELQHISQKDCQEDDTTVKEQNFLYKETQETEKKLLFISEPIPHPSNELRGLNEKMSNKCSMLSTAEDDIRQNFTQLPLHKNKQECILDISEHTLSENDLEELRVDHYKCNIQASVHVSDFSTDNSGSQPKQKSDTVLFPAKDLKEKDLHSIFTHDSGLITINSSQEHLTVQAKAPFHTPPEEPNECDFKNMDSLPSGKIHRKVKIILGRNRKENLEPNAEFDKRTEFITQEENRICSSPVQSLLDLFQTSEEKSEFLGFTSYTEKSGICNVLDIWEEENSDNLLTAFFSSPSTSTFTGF
The series is described as above. Type of series: biochemical.

Another series deals with T6, CK1d (Homo sapiens, UniProt P48730).
T6 construct: purchased ReactionBiology
T6 sequence (P48730 whole entry): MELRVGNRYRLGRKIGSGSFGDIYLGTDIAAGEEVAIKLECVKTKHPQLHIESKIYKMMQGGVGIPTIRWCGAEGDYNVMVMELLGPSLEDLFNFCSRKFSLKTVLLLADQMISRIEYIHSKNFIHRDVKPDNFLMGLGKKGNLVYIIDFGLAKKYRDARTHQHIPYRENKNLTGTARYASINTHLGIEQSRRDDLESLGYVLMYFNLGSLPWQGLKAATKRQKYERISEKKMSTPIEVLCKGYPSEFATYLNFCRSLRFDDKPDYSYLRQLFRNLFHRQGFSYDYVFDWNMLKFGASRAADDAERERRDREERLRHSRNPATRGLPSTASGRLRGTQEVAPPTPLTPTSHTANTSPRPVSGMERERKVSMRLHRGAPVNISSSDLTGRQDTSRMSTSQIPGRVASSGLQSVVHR
Described as above. Type of series: biochemical. The settings on record: CK1d.

The target of a further series is T7, MAP2K2 (Homo sapiens, UniProt P36507).
T7 construct: purchased ReactionBiology
T7 sequence (P36507 whole entry): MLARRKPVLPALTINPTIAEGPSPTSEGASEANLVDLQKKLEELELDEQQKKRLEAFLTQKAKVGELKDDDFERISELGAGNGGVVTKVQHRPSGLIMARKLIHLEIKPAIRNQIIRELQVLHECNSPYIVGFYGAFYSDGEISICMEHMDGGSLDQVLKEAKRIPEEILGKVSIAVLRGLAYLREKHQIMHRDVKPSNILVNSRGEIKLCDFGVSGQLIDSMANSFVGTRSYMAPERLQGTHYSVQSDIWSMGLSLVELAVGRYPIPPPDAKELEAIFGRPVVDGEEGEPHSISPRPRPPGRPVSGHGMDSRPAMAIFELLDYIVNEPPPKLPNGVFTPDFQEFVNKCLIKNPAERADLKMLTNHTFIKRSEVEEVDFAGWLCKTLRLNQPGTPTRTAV
The description is as above. The class given is biochemical.

Setting [6] is: Homo sapiens, B-cell, 168 h, IgG production, ODN2006 0.1 μM, 7 days, mean of 4 independent experiments, read-out: B-cell IC50.
The mark [7] stands for this setting: 1 uM, Average, read-out: % Enzyme Activity (relative to DMSO controls), Average.
[8] abbreviates: 1 uM, replicate Data 1, read-out: % Enzyme Activity (relative to DMSO controls), Data 1.
The mark [9] stands for this setting: 1 uM, replicate Data 2, read-out: % Enzyme Activity (relative to DMSO controls), Data 2.
Setting [10] is: 10 uM, Average, read-out: % Enzyme Activity (relative to DMSO controls), Average.
Where [11] appears, read: 10 uM, replicate Data 1, read-out: % Enzyme Activity (relative to DMSO controls), Data 1.
The mark [12] stands for this setting: 10 uM, replicate Data 2, read-out: % Enzyme Activity (relative to DMSO controls), Data 2.
[13] abbreviates: read-out: % Enzyme Activity (relative to DMSO controls), Average.
[14] abbreviates: read-out: % Enzyme Activity (relative to DMSO controls), Data 1.
The mark [15] stands for this setting: read-out: % Enzyme Activity (relative to DMSO controls), Data 2.
[16] abbreviates: read-out: % Enzyme activity at 1μM.
[17] abbreviates: read-out: % Enzyme activity at 10μM.
The mark [18] stands for this setting: Average, read-out: % Enzyme Activity (relative to DMSO controls), Average.
Where [19] appears, read: replicate Data 1, read-out: % Enzyme Activity (relative to DMSO controls), Data 1.
Where [20] appears, read: replicate Data 2, read-out: % Enzyme Activity (relative to DMSO controls), Data 2.

Read-outs that look alike come from different tables or passages of the source.
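For % Enzyme activity at 10μM in this document: VEGFR2 was one member of a ten-kinase screening panel testing marketed FDA-approved drugs.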
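For % Enzyme activity at 1μM in this document: VEGFR2 was one member of a ten-kinase screening panel testing marketed FDA-approved drugs.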

T1 sequence (Q5TCX8 whole entry): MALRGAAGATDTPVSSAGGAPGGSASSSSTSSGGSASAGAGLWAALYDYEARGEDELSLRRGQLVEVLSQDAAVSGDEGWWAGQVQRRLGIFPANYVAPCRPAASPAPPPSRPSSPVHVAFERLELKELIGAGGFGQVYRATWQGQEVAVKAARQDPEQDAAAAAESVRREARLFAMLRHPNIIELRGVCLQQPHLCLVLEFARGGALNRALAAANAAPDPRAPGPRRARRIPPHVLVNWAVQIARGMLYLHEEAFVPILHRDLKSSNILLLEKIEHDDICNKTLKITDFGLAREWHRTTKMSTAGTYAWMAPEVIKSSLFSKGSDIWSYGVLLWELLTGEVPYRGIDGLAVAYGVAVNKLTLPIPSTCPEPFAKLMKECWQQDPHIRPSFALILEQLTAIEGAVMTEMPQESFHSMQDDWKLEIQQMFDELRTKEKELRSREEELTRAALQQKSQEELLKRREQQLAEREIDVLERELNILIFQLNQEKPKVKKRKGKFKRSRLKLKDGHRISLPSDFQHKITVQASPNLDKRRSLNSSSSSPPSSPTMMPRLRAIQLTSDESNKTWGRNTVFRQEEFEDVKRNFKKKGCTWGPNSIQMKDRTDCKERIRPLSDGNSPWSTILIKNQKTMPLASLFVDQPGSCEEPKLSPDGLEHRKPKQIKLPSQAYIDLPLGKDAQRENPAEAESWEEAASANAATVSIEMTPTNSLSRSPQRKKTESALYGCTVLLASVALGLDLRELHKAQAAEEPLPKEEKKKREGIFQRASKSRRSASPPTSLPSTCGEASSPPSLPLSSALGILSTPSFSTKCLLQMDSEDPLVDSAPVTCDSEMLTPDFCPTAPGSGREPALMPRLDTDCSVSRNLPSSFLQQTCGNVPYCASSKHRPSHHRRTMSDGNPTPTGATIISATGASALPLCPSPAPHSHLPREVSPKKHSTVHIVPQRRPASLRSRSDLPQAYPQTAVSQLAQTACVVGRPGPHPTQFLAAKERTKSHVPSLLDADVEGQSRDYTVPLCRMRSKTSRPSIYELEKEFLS

For the compound `CC(=O)Nc1nnc(S(N)(=O)=O)s1` [Acetazolamide], on MLK4 (1 uM), the “% Enzyme Activity (relative to DMSO controls), Average” value is listed as 106.03%; the “% Enzyme Activity (relative to DMSO controls), Data 1” value worked out at 105.08%; the “% Enzyme Activity (relative to DMSO controls), Data 2” value is 106.98%. Further, on MLK4 (10 uM), the “% Enzyme Activity (relative to DMSO controls), Average” value came out at 98.49%; the “% Enzyme Activity (relative to DMSO controls), Data 1” value worked out at 99.01%; the “% Enzyme Activity (relative to DMSO controls), Data 2” value was 97.97%.
Take `COc1c(C)c2c(c(O)c1C/C=C(\C)CCC(=O)OCCN1CCOCC1)C(=O)OC2` [Mycophenolate Mofetyl]: the IC50 stood at 0.723 µM in the series with human CD19+ B cells (mean of 4 independent measures, read-out: B-cell efficacy, B cell IC 50 (µM) Mean); 0.552 µM with Jurkat cells; 0.487 µM in the series with RPMI1788 cells; 0.121 µM in series [1] (mean of 4 independent measures, read-out: T-cell efficacy, MLR IC 50 (µM) Mean).
As for `NCCC(O)(P(=O)(O)O)P(=O)(O)O` [Pamidronate], on MLK4 (1 uM), the “% Enzyme Activity (relative to DMSO controls), Average” value is reported as 79.13%; the “% Enzyme Activity (relative to DMSO controls), Data 1” value was 76.76%; the “% Enzyme Activity (relative to DMSO controls), Data 2” value is given as 81.5%. In addition, on MLK4 (10 uM), the “% Enzyme Activity (relative to DMSO controls), Average” value amounted to 78.77%; the “% Enzyme Activity (relative to DMSO controls), Data 1” value is on record as 82.48%; the “% Enzyme Activity (relative to DMSO controls), Data 2” value is listed as 75.06%.
With `Cc1ccc(C(=O)Nc2ccc(S(=O)(=O)O)c3cc(S(=O)(=O)O)cc(S(=O)(=O)O)c23)cc1NC(=O)c1cccc(NC(=O)Nc2cccc(C(=O)Nc3cc(C(=O)Nc4ccc(S(=O)(=O)O)c5cc(S(=O)(=O)O)cc(S(=O)(=O)O)c45)ccc3C)c2)c1` [Suramin, reference compound], binding at VEGFR2 [2] was put at a Kd of 25 µM. In addition, the IC50 was determined as 35.2 µM in the series with human CD19+ B cells (setting [6]) and 29.8 µM in [1] (Homo sapiens, RPMI-1788, mean of 4 independent measures, read-out: T-cell efficacy, MLR IC 50 (µM) Mean). Further, the IC50 at 48 h in series [3] and in series [5] was more than 50 µM throughout. Also, the remaining activity at 1 µM is 72.7% at VEGFR2 [4] (setting [7]); 73.6% at VEGFR2 [4] (setting [8]); 71.8% at VEGFR2 [4] (setting [9]); 72.7% at VEGFR2 [4] (compound 1μM, relative to DMSO controls, read-out: % Enzyme activity at 1μM). The remaining activity at 10 µM on VEGFR2 [4] (setting [10]) is 6.48%; on VEGFR2 [4] (setting [11]), 7.02%; on VEGFR2 [4] (setting [12]) it was 5.94%; at VEGFR2 [4] (compound 10μM, relative to DMSO controls, read-out: % Enzyme activity at 10μM), 6.48%. For the same compound, the “Selectivity Index (SI) MLR/B-cell” value in series [1] is recorded as 0.85.
`Oc1cc(Cl)ccc1Oc1ccc(Cl)cc1Cl` [Triclosan, reference compound]: the remaining activity at 1 µM is 99.2% at NEK2 (setting [13]); 98.5% at NEK2 (setting [14]); 99.8% at NEK2 (setting [15]); 99.2% on NEK2 (setting [16]); 100% at EPHB4 (setting [18]); 101% on EPHB4 (setting [19]). Further, the remaining activity at 1 µM came out at 99.9% at EPHB4 (setting [20]); 70.5% at CDC7 (setting [13]); 68.2% at CDC7 (setting [14]); 72.7% on CDC7 (setting [15]); 70.5% at CDC7 (setting [16]); 111% at VEGFR2 [4] (setting [7]). Also, the remaining activity at 1 µM stood at 108% at VEGFR2 [4] (setting [8]); 114% at VEGFR2 [4] (setting [9]); 96.6% on CK1d (setting [18]); 94.8% on CK1d (setting [19]); 98.3% on CK1d (setting [20]); 97.6% on MAP2K2 (setting [13]). The remaining activity at 1 µM at MAP2K2 (setting [14]) was found to be 95.3%; on MAP2K2 (setting [15]), 99.8%. For the same compound, the remaining activity at 10 µM at NEK2 (setting [13]) amounted to 64.6%; on NEK2 (setting [14]), 68.9%; on NEK2 (setting [15]), 60.4%; on NEK2 (setting [17]), 64.6%; at EPHB4 (setting [18]) it was 97.4%; at EPHB4 (setting [19]), 97.3%. Besides, the remaining activity at 10 µM is 97.4% at EPHB4 (setting [20]); 65.4% at CDC7 (setting [13]); 71.2% on CDC7 (setting [14]); 59.7% at CDC7 (setting [15]); 65.4% on CDC7 (setting [17]); 101% at VEGFR2 [4] (setting [10]). The remaining activity at 10 µM on VEGFR2 [4] (setting [11]) was 103%; at VEGFR2 [4] (setting [12]), 99.9%; on CK1d (setting [18]) it was 96.9%; at CK1d (setting [19]) it was 97.8%; at CK1d (setting [20]) it was 96%; at MAP2K2 (setting [13]), 96%. Also, the remaining activity at 10 µM at MAP2K2 (setting [14]) came out at 95%; on MAP2K2 (setting [15]), 97.1%. Also, the IC50 in the series with human CD19+ B cells (setting [6]) stood at 20.9 µM; in series [1] (Homo sapiens, RPMI-1788, read-out: T-cell efficacy, MLR IC 50 (µM) Mean), 34.3 µM. In addition, the results for the IC50 at 48 h in [3] and in [5] were 26.2 µM and 27.7 µM, respectively. Besides, the “Selectivity Index (SI) MLR/B-cell” value in [1] is given as 1.64.
